# Key:
# [1] = test system: MCF7 cells; test: Live-cell imaging growth studies and EC50 for growth inhibition, MCF7; assay type: cell-based; conditions: Homo sapiens, read-out: Approximate Half-maximal Effective Concentration (EC50) for growth inhibition
# Experimental: (§1) MCF7, T47D, T47D ESR1 Y537S or T47D ESR1 D538G cells were seeded at 2×10^5 density per well in 6-well tissue culture-treated plates in DMEM/F12/10% FBS (2 mL total volume). […] The plate was then placed in the Incucyte® S3 Live-Cell Analysis System and images were acquired every 4 hours for a total of 5 days (120 hours). Data were analyzed using the Incucyte® Software v2020C which quantified cell surface area coverage as confluence values. Relative growth was calculated for all timepoints for all growth conditions relative to the confluence value observed for the control at 120 hours. Graphing and statistical analyses were performed using Graphpad Prism (GraphPad Software).
# [2] = test system: T47D cells; test: Live-cell imaging growth studies and EC50 for growth inhibition, T47D; assay type: cell-based; conditions: Homo sapiens, read-out: Approximate Half-maximal Effective Concentration (EC50) for growth inhibition
# Experimental: as §1
# [3] = test system: MCF7 cells; test: Luminescence-based MCF7 cell proliferation assay, dose-response matrix; conditions: 5 days (120 hours)
# Experimental: MCF7 cells were seeded at a density of 2×10^4 cells in 200 μL of media per well in 2 technical replicate, 96-well black, clear-bottom plates and incubated overnight at 37° C. in a 5% CO2 incubator. […] DMSO was used as the vehicle control. The plates were then incubated for 5 days at 37° C. in a 5% CO2 incubator.
# The plates were equilibrated to room temperature for approximately 30 minutes. 50 μL of Cell-Titer Glo (Promega) was added to all wells of the plates, covered with aluminum foil and shaken gently by hand for less than 1 minute. The plates were then incubated for 10 minutes at room temperature. Luminescence was recorded using Envision Multi Label Reader. To assess cell viability, luminescence values for drug-treated wells were normalized to average luminescence of vehicle (DMSO) wells to obtain percent viability relative to control cells. The data were analyzed with the Combenefit software.
# [4] = test system: MCF7 xenograft; test: MCF7 orthotopic xenograft, combination with PI3K inhibitor alpelisib; assay type: in vivo, NOD/SCID mice
# Experimental: (§2) NOD/SCID female mice (Charles River, 6-7 weeks old upon arrival) were implanted with 17b-estradiol 0.72 mg 90-day pellets. The next day, each mouse was implanted with 5×10^6 MCF7 cells/100 mL in the axial mammary fat pad. Compound administration was initiated once the tumors reached 175-200 mm^3. Diet was supplemented with peanut butter to help maintain body weights. Dosing holidays occurred on days 6, 7, 8 and 9 due to body weight loss in some animals in study arms 3 and 4. […] (FIG. 31 and Table 15).
# Dosing holidays occurred on days 6, 7, 8 and 9. Error bars represent standard deviation.
# (§3) The ratio of Tween 80 to PEG-400 is 0.02 g Tween 80 to 1 ml PEG-400. PEG-400 is added to a pre-aliquoted volume of Tween 80. • For alpelisib: 1% carboxymethylcellulose (CMC), 0.5% Tween 80/DI water (‘CMC/Tween’) Sampling: tumors were measured twice weekly. Terminal sacrifice was ˜18 hr after last dose. Tumor volume calculation: Tumor Volume=(width×width×length)/2, where all measurements are in mm and the tumor volume is in mm^3. Tumor Growth Inhibition (TGI) calculation: TGI (%)
# [5] = test system: T47D ESR1 D538G cells; test: Live-cell imaging growth studies and EC50 for growth inhibition, T47D ESR1 D538G; assay type: cell-based; conditions: Homo sapiens; T47D ESR1 D537G (so in the source); read-out: Approximate Half-maximal Effective Concentration (EC50) for growth inhibition
# Experimental: as §1
# [6] = test system: T47D ESR1 Y537S cells; test: Live-cell imaging growth studies and EC50 for growth inhibition, T47D ESR1 Y537S; assay type: cell-based; conditions: Homo sapiens, read-out: Approximate Half-maximal Effective Concentration (EC50) for growth inhibition
# Experimental: as §1
# [7] = test system: MCF7 xenograft; test: MCF7 orthotopic xenograft, combination with mTOR inhibitor everolimus; assay type: in vivo, NOD/SCID mice
# Experimental: as §2, with “[…] per” for “mL”, “weights.” for “weights. Dosing holidays occurred on days 6, 7, 8 and 9 due to body weight loss in some animals in study arms 3 and 4.”, “28” for “31”, “13).” for “15).”
# Error bars represent standard deviation.
# as §3, with “everolimus: 10% DMSO, 90% (2%” for “alpelisib: 1% carboxymethylcellulose (CMC), 0.5%”, “80, PEG 400) (DMSO/PEG/Tween)” for “80/DI water (‘CMC/Tween’)”
# [8] = target: T1, ERα (Homo sapiens, UniProt P03372); test: ERα levels in tamoxifen-resistant MCF7 xenografts (immunoblot); assay type: in vivo, Nu/Nu mice; conditions: tamoxifen-resistant MCF7, palbociclib alone 60 mg/kg
# T1 construct: robustly degrades ER in ER-positive breast cancer cell lines; endogenous in cells; host or cells: MCF7, T47D (cell culture); MCF7 and tamoxifen-resistant MCF7 xenograft tumours in mice
# T1 sequence (P03372 1-595): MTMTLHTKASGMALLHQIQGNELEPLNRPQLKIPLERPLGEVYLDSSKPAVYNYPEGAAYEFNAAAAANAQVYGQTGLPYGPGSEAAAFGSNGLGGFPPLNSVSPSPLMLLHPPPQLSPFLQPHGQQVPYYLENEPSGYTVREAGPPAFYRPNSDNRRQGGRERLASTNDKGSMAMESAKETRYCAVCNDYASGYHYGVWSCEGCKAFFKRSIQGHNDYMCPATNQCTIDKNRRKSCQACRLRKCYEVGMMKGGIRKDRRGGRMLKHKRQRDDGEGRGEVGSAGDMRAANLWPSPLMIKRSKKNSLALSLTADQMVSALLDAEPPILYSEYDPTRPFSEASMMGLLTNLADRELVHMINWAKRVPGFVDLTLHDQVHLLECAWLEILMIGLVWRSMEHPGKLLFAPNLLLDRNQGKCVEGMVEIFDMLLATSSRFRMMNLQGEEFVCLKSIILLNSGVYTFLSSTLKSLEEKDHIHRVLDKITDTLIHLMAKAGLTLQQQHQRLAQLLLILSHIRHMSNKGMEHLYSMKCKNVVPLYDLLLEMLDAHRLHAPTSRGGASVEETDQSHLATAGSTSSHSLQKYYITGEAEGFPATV
# Experimental: At study termination, the tumors were removed from the mice, and ERα levels were determined by immunoblotting the tumor homogenates. […] ERα levels from the various compound arms were compared to vehicle-treated animals by analyzing the tumor lysates on separate immunoblots (graphs in FIG. 10, FIG. 11, and FIG. 12 depict data from individual immunoblots) and the average ERα levels with standard deviation is shown.
# (§4) Sampling: Tumors were measured twice weekly. Terminal sacrifice was ˜18 hr after last dose; tumors were harvested, divided, and flash frozen. ERα levels were determined by immunoblotting (see Appendix 1 for details).
# Flash frozen tumors were removed from −80° C. storage and placed on dry ice. RIPA lysis buffer and Halt protease inhibitors were used at 400 μl per tumor sample. A steel ball (5 mm) was placed in each sample for tissue disruption. Samples were lysed with TissueLyzer at 24 Hz for 4 minutes. The homogenization was stopped half way through the process and the block flipped over for the duration of the process. […] Lysates were then measured for total protein concentration by BCA (per manufacturer's protocol). […]
# Protein was transferred from gels to nitrocellulose with Bio-Rad Turbo on default setting. […] The blots were cut so that beta-actin and ERα can be detected from the same lane/sample. […]
# [9] = test system: tamoxifen-resistant MCF7 xenografts; test: Tamoxifen-resistant MCF7 orthotopic xenograft tumor growth inhibition; assay type: in vivo, Nu/Nu mice
# Experimental: Species: Ovariectomized Nu/Nu female mice. Animal handling: Axial mammary fat pad implantation of tamoxifen-resistant tumor fragment (from E45 passage. SC per mouse. Tamoxifen pellet (5 mg, 60-day release) was implanted under the same anesthesia as tumor fragment (pellet—dorsal; tumor—ventral).
# Dosing: Oral (gavage), once a day for 28 days (QD×28)
# as §4
# [10] = alpelisib 25 mg/kg oral QD x 19
# [11] = everolimus 2.5 mg/kg oral QD x 26
# [12] = palbociclib 60 mg/kg oral QD x 28
smiles,measurement,setting,value
CCN1CCN(Cc2ccc(Nc3ncc(F)c(-c4cc(F)c5nc(C)n(C(C)C)c5c4)n3)nc2)CC1 [Abemaciclib],EC50,[1],0.04 µM
"Cc1nc(NC(=O)N2CCC[C@H]2C(N)=O)sc1-c1ccnc(C(C)(C)C(F)(F)F)c1 [Alpelisib, reference compound]",EC50,[2],0.1 µM
same,"MCF7 cell proliferation, single agent",[3],dose-dependent decrease
same,EC50,[1],0.1 µM
same,Day 19 Tumor Volume (mean ± SD),[4]; [10],281 ± 37 mm^3
same,TGI (% vehicle),[4]; [10],74 % vehicle
same,tumor growth inhibition (TGI),"[4]; alpelisib 25 mg/kg oral once daily, 19 days, dosing holidays days 6-9",74%
"CO[C@H]1C[C@@H]2CC[C@@H](C)[C@@](O)(O2)C(=O)C(=O)N2CCCC[C@H]2C(=O)O[C@H]([C@H](C)C[C@@H]2CC[C@@H](OCCO)[C@H](OC)C2)CC(=O)[C@H](C)/C=C(\C)[C@@H](O)[C@@H](OC)C(=O)[C@H](C)C[C@H](C)/C=C/C=C/C=C/1C [Everolimus, reference compound]",EC50,[5],0.01 µM
same,EC50,[2],0.1 µM
same,"MCF7 cell proliferation, single agent",[3],dose-dependent decrease
same,EC50,[6],0.01 µM
same,Day 26 Tumor Volume (mean ± SD),[7]; [11],252 ± 50 mm^3
same,TGI (% vehicle),[7]; [11],89 % vehicle
same,tumor growth inhibition (TGI),"[7]; everolimus 2.5 mg/kg oral once daily, 26 days",89%
same,EC50,[1],0.01 µM
C[C@H](Nc1ccc2c(c1)OCCn1cc(N3C(=O)OC[C@H]3C(F)F)nc1-2)C(N)=O [GDC-0077],EC50,[2],0.03 µM
same,"MCF7 cell proliferation, single agent",[3],dose-dependent decrease
same,EC50,[1],0.04 µM
"CC(=O)c1c(C)c2cnc(Nc3ccc(N4CCNCC4)cn3)nc2n(C2CCCC2)c1=O [Palbociclib, 6-acetyl-8-cyclopentyl-5-methyl-2-{[5-(piperazin-1-yl)pyridin-2-yl]amino}pyrido[2,3-d]pyrimidin-7(8H)-one, reference compound]",effect on tumor ERα levels,[8],did not reduce
same,Day 28 Tumor volume (mean ± SD),[9]; [12],222 ± 139 mm^3
same,TGI (% vehicle),[9]; [12],91 % vehicle
same,tumor growth inhibition (TGI),"[9]; tamoxifen-resistant MCF7, palbociclib 60 mg/kg/day oral, 28 days",91%
CC1(C)CCC(CN2CCN(c3ccc(C(=O)NS(=O)(=O)c4ccc(NCC5CCOCC5)c([N+](=O)[O-])c4)c(Oc4cnc5[nH]ccc5c4)c3)CC2)=C(c2ccc(Cl)cc2)C1 [Venetoclax],EC50,[1],10 µM

# Source: patent US20220193072A1, “METHODS OF TREATING BREAST CANCER WITH TETRAHYDRONAPHTHALENE DERIVATIVES AS ESTROGEN RECEPTOR DEGRADER” (Arvinas Operations, Inc., priority 2020, published 2022)
